How the values were obtained:
[1] = test system: Pseudomonas aeruginosa NCIB 10421; experiment: Minimum inhibitory concentration against mono-cultures, microtitre plate doubling dilutions in nutrient broth; type: cell-based; details: 24 hours at 37° C., visual inspection
Procedure: Pseudomonas aeruginosa NCIB 10421 Bacteria were grown to stationary phase (18 h) in nutrient broth (approximately 10^9 organisms per ml). A 0.1% (v/v) inoculum was used to seed fresh medium and 100 μl of the inoculum was then added to each well of a microtitre plate, except for the first well which contained 200 μl. Using doubling dilutions, the concentration of the compounds under investigation were varied in each well along the ordinate axis. The presence or absence of growth was recorded by visual inspection after 24 hours incubation at 37° C. […]

[2] = test system: Aspergillus Niger IMI 17454; experiment: Minimum inhibitory concentration against monocultures (fungus); type: cell-based; details: Example 3, Table 5; biocide alone
Procedure: Aspergillus Niger IMI 17454 The fungus was maintained on malt agar. The MICs were calculated as described previously in examples 1 and 2.

SMILES	MIC (ppm) against Ps. aeruginosa ([1]; Example 1, Table 1, biocide alone)	MIC (ppm) against Aspergillus Niger [2]	MIC (ppm) against Ps. aeruginosa ([1]; Example 2, Table 3, biocide alone)
O=c1[nH]sc2ccccc12 [BIT, 1,2-benzisothiazolin-3-one]	32 ppm		
CCCCn1sc2ccccc2c1=O [Butyl BIT, 2n-butyl-1,2-benzisothiazolin-3-one]		8 ppm	125 ppm
